# Test results as given in ChEMBL document CHEMBL5344425, “Discovery of 5-(Pyrimidin-2-ylamino)-1H-indole-2-carboxamide Derivatives as Nur77 Modulators with Selective and Potent Activity Against Triple-Negative Breast Cancer” (J Med Chem, 2023).
# Calls of active or inactive are those of the source. The calls are words filed in the database; no cut-off is given here.
# How the values were obtained:
# [1] = system: Nuclear receptor subfamily 4immunitygroup A member 1 (Homo sapiens), P22736 [UNDEFINED MUTATION]; experiment: Induction of degradation of Myc-tagged Nur77 R184A mutant (unknown origin) transfected in human MDA-MB-231 cells at 2 to 5 uM measured after 6 hrs by western blot analysis; format: cell-based; conditions: dose 2-5 µM
# [2] = target: T1, Peroxisome proliferator-activated receptor gamma (Homo sapiens) (UniProt P37231); experiment: Antagonist activity at PPARgamma ligand binding domain (unknown origin) transfected in HEK293T cells cotransfected with pG5-Luc assessed as inhibition of receptor transcriptional activity at 2 uM measured after 12 hrs by luciferase reporter gene assay; format: cell-based
# T1 sequence (whole entry): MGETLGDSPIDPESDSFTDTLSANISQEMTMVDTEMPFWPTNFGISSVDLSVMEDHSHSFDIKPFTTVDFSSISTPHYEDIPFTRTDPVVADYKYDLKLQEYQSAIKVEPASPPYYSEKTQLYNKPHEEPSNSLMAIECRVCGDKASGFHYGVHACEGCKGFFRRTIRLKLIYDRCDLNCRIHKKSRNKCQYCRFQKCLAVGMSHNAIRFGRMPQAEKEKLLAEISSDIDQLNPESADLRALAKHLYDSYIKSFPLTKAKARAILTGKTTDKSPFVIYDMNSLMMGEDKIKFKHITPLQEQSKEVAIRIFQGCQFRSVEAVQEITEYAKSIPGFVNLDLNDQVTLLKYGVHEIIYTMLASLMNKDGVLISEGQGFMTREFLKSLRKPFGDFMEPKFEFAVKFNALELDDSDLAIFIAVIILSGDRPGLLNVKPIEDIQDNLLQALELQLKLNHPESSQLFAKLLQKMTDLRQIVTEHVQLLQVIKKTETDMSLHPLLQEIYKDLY
# T47D [3] = experiment: Antiproliferative activity against human T47D cells assessed as inhibition of cell growth measured after 24 hrs by MTT assay; format: functional, cell-based
# [4] = target: T2, Nuclear receptor subfamily 4immunitygroup A member 1 (Homo sapiens, UniProt P22736); experiment: Modulation of Nur77 in human MDA-MB-231 cells assessed as increase in TP53 phosphorylation at Ser15 residue at 0.31 to 5 uM measured after 6 hrs by western blot analysis; format: cell-based; conditions: filed as modulator, dose 0.31-5 µM
# MDA-MB-231 [5] = experiment: Induction of apoptosis in human MDA-MB-231 cells transfected with Nur77 siRNA assessed as late apoptotic cells at 2 uM measured after 6 hrs by AnnexinV-FITC/PI staining based flow cytometry (reference value: 3.97%); format: functional
# [6] = Toxicity in BALB/c mouse xenografted with human MDA-MB-231 cells assessed as morphological changes in lung at 10 mg/kg, ip qd for 16 days by Hematoxylin-Eosin staining based analysis; format: organism-based; conditions: in vivo, 384 h, time 16 day
# [7] = Toxicity in Zebra fish AB embryo assessed as mortality rate at 1.25 to 5 uM measured after 24 to 72 hrs; parameters: species or system Danio rerio; conditions: zebrafish, dose lower 1.25 µM, time lower 24 hrs, dose upper 5 µM, time upper 72 hrs
# MDA-MB-231 [8] = experiment: Induction of apoptosis in human MDA-MB-231 cells assessed as increase in Tunel-488 […] at 1 uM measured after 6 hrs by confocal microscopy; format: functional, cell-based
# MDA-MB-231 [9] = experiment: Induction of apoptosis in human MDA-MB-231 cells transfected with Myc-cmv assessed as PARP cleavage at 2 to 5 uM measured after 6 hrs by western blot analysis; format: functional, cell-based; conditions: dose 2-5 µM
# BT-549 = experiment: Antiproliferative activity against human BT-549 cells assessed as inhibition of cell growth measured after 24 hrs by MTT assay; format: functional, cell-based; conditions: BT-549, 24 h
# [10] = target: T2, Nuclear receptor subfamily 4immunitygroup A member 1; experiment: Modulation of Nur77 in human MDA-MB-231 cells assessed as increase in TP53 phosphorylation at Ser37 residue at 0.31 to 5 uM measured after 6 hrs by western blot analysis; format: cell-based; conditions: filed as modulator, dose 0.31-5 µM
# MDA-MB-231 [11] = experiment: Induction of apoptosis in human MDA-MB-231 cells transfected with Nur77 siRNA assessed as loss of mitochondrial membrane potential at 2 uM measured after 6 hrs by JC-1 staining based flow cytometry (reference value: 6.1%); format: functional
# T47D [12] = experiment: Antiproliferative activity against human T47D cells transfected with Nur77 siRNA assessed as inhibition of cell growth measured after 24 hrs by MTT assay; format: functional, cell-based
# HeLa = experiment: Antiproliferative activity against human HeLa cells transfected with Nur77 siRNA assessed as inhibition of cell growth measured after 24 hrs by MTT assay; format: functional, cell-based
# [13] = Selectivity index, ratio of IC50 for cytotoxicity against human MCF-10A cells to IC50 for antiproliferative activity against human MDA-MB-231 cells; format: toxicity, cell-based; conditions: MCF-10A cells versus MDA-MB-231 cells, read-out: Ratio IC50
# MDA-MB-231 [14] = experiment: Induction of apoptosis in human MDA-MB-231 cells transfected with Myc-Nur77 R184A mutant assessed as PARP cleavage at 2 to 5 uM measured after 6 hrs by western blot analysis; format: functional, cell-based; conditions: dose 2-5 µM
# MDA-MB-231 [15] = experiment: Antitumor activity against human MDA-MB-231 cells xenografted in BALB/c mouse assessed as decrease in Ki67 expression in tumor at 10 mg/kg, ip qd for 16 days by immunohistochemical staining based analysis; format: functional, organism-based; conditions: time 16.0 day
# MDA-MB-231 [16] = experiment: Induction of apoptosis in human MDA-MB-231 cells transfected with ctr siRNA assessed as late apoptotic cells at 2 uM measured after 6 hrs by AnnexinV-FITC/PI staining based flow cytometry (reference value: 3.97%); format: functional
# MDA-MB-231 [17] = experiment: Antiproliferative activity against human MDA-MB-231 cells assessed as inhibition of cell growth measured after 24 hrs by MTT assay; format: functional, cell-based; conditions: MDA-MB-231, 24 h
# Bel-7402 = experiment: Antiproliferative activity against human Bel-7402 cells assessed as inhibition of cell growth measured after 24 hrs by MTT assay; format: functional, cell-based; conditions: Bel-7402, 24 h
# MDA-MB-231 [18] = experiment: Induction of apoptosis in human MDA-MB-231 cells transfected with Myc-Nur77 assessed as PARP cleavage at 1 to 2 uM measured after 6 hrs by western blot analysis; format: functional, cell-based; conditions: dose 1-2 µM
# HT-29 = experiment: Antiproliferative activity against human HT-29 cells assessed as inhibition of cell growth measured after 24 hrs by MTT assay; format: functional, cell-based; conditions: HT-29, 24 h
# MDA-MB-231 [19] = experiment: Induction of apoptosis in human MDA-MB-231 cells transfected with ctr siRNA assessed as late apoptotic cells at 1 uM measured after 6 hrs by AnnexinV-FITC/PI staining based flow cytometry (reference value: 3.97%); format: functional
# T2 sequence (P22736 whole entry): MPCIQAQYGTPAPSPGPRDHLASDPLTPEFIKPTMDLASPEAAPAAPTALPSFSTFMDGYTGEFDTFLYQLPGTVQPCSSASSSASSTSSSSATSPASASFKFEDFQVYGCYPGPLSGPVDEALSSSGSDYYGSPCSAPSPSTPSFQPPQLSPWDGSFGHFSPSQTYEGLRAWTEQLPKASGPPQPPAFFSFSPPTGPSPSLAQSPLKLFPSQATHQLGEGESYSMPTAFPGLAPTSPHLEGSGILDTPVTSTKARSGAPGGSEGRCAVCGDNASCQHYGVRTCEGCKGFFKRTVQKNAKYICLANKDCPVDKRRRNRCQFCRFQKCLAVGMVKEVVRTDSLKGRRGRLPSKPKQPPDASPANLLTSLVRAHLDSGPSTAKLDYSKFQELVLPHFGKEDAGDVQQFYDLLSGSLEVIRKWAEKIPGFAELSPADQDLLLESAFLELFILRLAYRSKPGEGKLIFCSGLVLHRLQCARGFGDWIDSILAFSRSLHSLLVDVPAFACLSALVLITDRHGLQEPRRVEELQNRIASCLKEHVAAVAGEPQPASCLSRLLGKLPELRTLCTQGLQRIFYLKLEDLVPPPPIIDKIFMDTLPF
# Nuclear receptor subfamily 4immunitygroup A member 1 (Homo sapiens), P22736 [UNDEFINED MUTATION], sequence (P22736 whole entry, looked up, stated change not applied, the tested form may be a part): as the sequence (P22736 whole entry) above
compound,measurement,setting,value
CCN(CC)CCCNC(=O)c1cc2cc(Nc3nccc(-c4sc(NC)nc4C)n3)ccc2[nH]1,Activity,[1],inactive
same,inhibition,[2],inactive
same,IC50,T47D [3],1.05 µM
same,Activity,[4],Active
same,Activity,MDA-MB-231 [5],2.36%
same,Activity,[6],Non-Toxic
same,Activity,[7],Non-Toxic
same,Activity,MDA-MB-231 [8],Active
same,Activity,MDA-MB-231 [9],Active
same,IC50,BT-549,2.12 µM
same,Activity,[10],Active
same,Activity,MDA-MB-231 [11],15.41%
same,IC50,T47D [12],6.34 µM
same,IC50,HeLa,9.15 µM
same,selectivity ratio,[13],120
same,Activity,MDA-MB-231 [14],inactive
same,Activity,MDA-MB-231 [15],Active
same,Activity,MDA-MB-231 [16],13.04%
same,IC50,MDA-MB-231 [17],0.4 µM
same,IC50,Bel-7402,38.3 µM
same,Activity,MDA-MB-231 [18],Active
same,IC50,HT-29,47.2 µM
same,Activity,MDA-MB-231 [19],8.23%
